Tests used:
[1] = solubility in solvents and water; type: physicochemical
Description: According to the present invention there is provided a compound of formula (I) in which R1 is -OCH3 and R is CH3, which is a crystalline yellow compound, which decomposes upon heating to 170°C, is soluble (1 : 100) in methanol and (1 : 30) in dimethylformamide, but insoluble in water.

Trichomonas Vaginalis = type: in vivo, humans
Description: The clinical investigation involved 42 patients, aged from 22 to 55, affected by vaginitis induced by Trichomonas Vaginalis.
The diagnosis was determined through bacterioscopic, cultural and May-Grunwald Giemsa examinations, which were repeated 3 days after the end of the treatment. The 42 Patients were splitted into 6 groups of 7 patients each.

[2] = half-life in animal (dog) and in man; settings: in vivo
[3] = test system: hepatic glutatione-S-transferase; assay: activity of hepatic glutathione-S-transferase
[4] = treated orally (1st, 2nd, 3rd, 4th groups)

Question: For `COc1ccc(OC(=O)CCC(=O)Nc2nccc(C=Cc3ncc([N+](=O)[O-])n3C)n2)c(C(C)(C)C)c1` [p-methoxy-o-tert-butyl-phenol ester of 5-nitro-imidazolyl-2-ethenyl-(2-amino-pyrimidyl)-N-succinic acid], which solubility in water [1] is on record?
Answer: Its solubility in water is “insoluble”.

Question: What about the complete recovery (Trichomonas Vaginalis; 5th group, treated only locally) of the same compound?
Answer: Its complete recovery is 85%.

Question: And the “Trichomonas vaqinalis disappeared, number of patients” value (Trichomonas Vaginalis; 5th group, treated only locally, 3 vaginal tablets of 200 mg per day for 5 days)?
Answer: The value was 6 out of 7 patients.

Question: What about the positive results (Trichomonas Vaginalis; 6th group, treated both orally and locally) of the same compound?
Answer: The positive results was 100%.

Question: And the “activity against Trichomoniasis” value (Trichomonas Vaginalis; 42 patients)?
Answer: The value was “highly active”.

Question: And the tolerance in patients (Trichomonas Vaginalis; human, in vivo, po)?
Answer: Its tolerance in patients is “well tolerated”.

Question: What about the complete success (Trichomonas Vaginalis; [4]) of the same compound?
Answer: Its complete success is 98%.

Question: What about the “complete success, number of patients” value (Trichomonas Vaginalis; [4]) of the same compound?
Answer: Its value is 25 patiens out of 28.

Question: Which half-life [2] does the source give for `Cc1ncc([N+](=O)[O-])n1CCO` [metronidazole, 1-(2-hydroxyethyl)-2-methyl-5-nitro-imidazole] here?
Answer: Its half-life is 7.3 h.

Question: And the “activity of the hepatic glutatione-S-transferase” value [3]?
Answer: The value was “does not exert this action”.

From patent EP0045990A1, “Novel antibacterial and antiprotozoal derivatives, a process for the preparation thereof, and related pharmaceutical compositions” (Farmatis S.r.l., priority 1980, dated 1982)
